Test results taken from ChEMBL document CHEMBL5036306 (J Med Chem, 2021).
Activity calls are given as the source filed them. The calls are words filed in the database; no cut-off is given here.

What was measured:
Histone deacetylase 3 [1] = target: T1, Histone deacetylase 3 (Homo sapiens, UniProt O15379); experiment: Inhibition of recombinant HDAC3 (unknown origin) using Boc-Lys(acetyl)-AMC as substrate preincubated for 1 hr followed by substrate addition and measured after 2 hrs by fluorescence based assay
Homo sapiens = species on record: Homo sapiens; experiment: Selectivity ratio of IC50 for recombinant HDAC3 (unknown origin) to IC50 for recombinant HDAC6 (unknown origin)
[2] = Antioxidant activity assessed as DPPH radical scavenging activity incubated for 30 mins under dark condition by microplate reader based assay; type: functional
[3] = Neurotoxicity in mouse HT-22 cells assessed as cell survival at 10 uM incubated for 48 hrs by MTT assay; type: cell-based; conditions: for viability at 48 h, 10 µM: HT-22 cells, read-out: Activity
[4] = Antioxidant activity of compound assessed as trolox equivalent of AAPH radical scavenging activity at 2 to 4 uM preincubated for 15 mins followed by AAPH addition and measured every 2 mins for 90 mins by ORAC-fluorescein assay; type: functional; conditions: dose 2-4 µM, time 105.0 min
[5] = target: T2, Protein deacetylase HDAC6 (Homo sapiens, UniProt Q9UBN7); experiment: Inhibition of recombinant HDAC6 (unknown origin) using Boc-Lys(acetyl)-AMC as substrate preincubated for 1 hr followed by substrate addition and measured after 2 hrs by fluorescence based assay
T2 sequence (Q9UBN7 whole entry): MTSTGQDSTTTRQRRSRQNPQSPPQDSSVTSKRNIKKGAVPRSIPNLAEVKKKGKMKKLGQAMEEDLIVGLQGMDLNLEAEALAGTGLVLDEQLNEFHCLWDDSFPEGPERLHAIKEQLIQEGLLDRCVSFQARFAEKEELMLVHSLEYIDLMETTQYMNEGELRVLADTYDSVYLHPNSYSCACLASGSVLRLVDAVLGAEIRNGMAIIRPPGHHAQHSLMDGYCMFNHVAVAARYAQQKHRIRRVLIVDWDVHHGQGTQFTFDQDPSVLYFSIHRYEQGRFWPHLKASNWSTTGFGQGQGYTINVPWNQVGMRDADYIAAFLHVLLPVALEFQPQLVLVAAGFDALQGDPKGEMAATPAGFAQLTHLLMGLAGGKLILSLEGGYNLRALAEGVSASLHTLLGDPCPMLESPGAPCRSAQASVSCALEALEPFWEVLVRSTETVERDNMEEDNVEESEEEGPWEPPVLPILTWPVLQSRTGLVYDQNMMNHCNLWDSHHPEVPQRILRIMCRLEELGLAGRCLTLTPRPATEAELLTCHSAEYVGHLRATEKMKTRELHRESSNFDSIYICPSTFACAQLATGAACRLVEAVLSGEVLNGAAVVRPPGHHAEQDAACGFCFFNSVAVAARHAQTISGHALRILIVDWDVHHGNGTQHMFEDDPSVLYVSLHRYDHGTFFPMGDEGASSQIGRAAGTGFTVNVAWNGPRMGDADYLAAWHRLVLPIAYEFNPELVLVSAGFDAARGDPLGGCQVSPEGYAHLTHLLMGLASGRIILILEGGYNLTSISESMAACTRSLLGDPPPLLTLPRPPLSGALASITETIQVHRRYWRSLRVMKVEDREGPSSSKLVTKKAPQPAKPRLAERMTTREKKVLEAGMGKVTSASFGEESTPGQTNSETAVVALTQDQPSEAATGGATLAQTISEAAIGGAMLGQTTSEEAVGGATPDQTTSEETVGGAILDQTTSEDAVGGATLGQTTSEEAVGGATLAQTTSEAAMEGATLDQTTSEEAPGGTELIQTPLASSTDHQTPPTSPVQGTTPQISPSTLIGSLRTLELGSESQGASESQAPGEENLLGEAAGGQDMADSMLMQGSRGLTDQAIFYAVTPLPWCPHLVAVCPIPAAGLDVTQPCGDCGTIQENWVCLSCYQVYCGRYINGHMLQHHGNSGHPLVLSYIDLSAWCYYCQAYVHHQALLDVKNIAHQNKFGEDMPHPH

HT-22 [6] = experiment: Neuroprotection against glutamate-induced oxytosis in mouse HT-22 cells assessed as cell viability at 50 uM; type: functional, cell-based
HT-22 [7] = experiment: Neuroprotection against iodoacetic acid-induced ATP depletion in mouse HT-22 cells assessed as cell viability at 50 uM; type: functional, cell-based
Histone deacetylase 3 [8] = target: T1, Histone deacetylase 3; experiment: Inhibition of recombinant HDAC3 (unknown origin) at 1 uM using Boc-Lys(Ac)-AMC as substrate preincubated for 1 hr followed by substrate addition and measured after 2 hrs by fluorescence based assay relative to control; conditions: time 3.0 hrs
[9] = target: T3, Protein deacetylase HDAC6 (Homo sapiens) (UniProt Q9UBN7); experiment: Inhibition of recombinant HDAC6 (unknown origin) at 1 uM using Boc-Lys(Ac)-AMC as substrate preincubated for 1 hr followed by substrate addition and measured after 2 hrs by fluorescence based assay; conditions: time 3.0 hrs
T3 sequence (whole entry): T2 sequence (Q9UBN7 whole entry)

Mus musculus [10] = experiment: Anti-alzheimer activity against amyloid beta (25 to 35) induced working memory deficit mouse assessed as step-through latency time to enter dark compartment at 1 mg/kg, ip administered for 7 days and measured on day 9 days by passive avoidance test; type: functional, organism-based; conditions: time 9.0 day
Mus musculus [11] = experiment: Anti-alzheimer activity against amyloid beta (25 to 35) induced working memory deficit mouse assessed as increase in spontaneous alternation performance by measuring total number of arm entries at 0.16 mg/kg, ip administered for 7 days and measured on day 8 by Y-maze test; type: functional, organism-based; conditions: time 8.0 day
Mus musculus [12] = experiment: Anti-alzheimer activity against amyloid beta (25 to 35) induced working memory deficit mouse assessed as step-through latency time to enter dark compartment at 0.3 to 3 mg/kg, ip administered for 7 days and measured on day 9 days by passive avoidance test; type: functional, organism-based; conditions: dose 0.3-3 mg/kg, time 9.0 day
Mus musculus [13] = experiment: Cognitive enhancing effect in mouse model of Alzheimer's disease at 1 mg/kg; type: functional, organism-based
Mus musculus [14] = experiment: Anti-alzheimer activity against amyloid beta (25 to 35) induced working memory deficit in mouse assessed as increase in spontaneous alternation performance at 1 mg/kg, ip administered for 7 days and measured on day 8 by Y-maze test; type: functional, organism-based; conditions: time 7.0 day
[15] = Toxicity in mouse model of Alzheimer's disease assessed as drug tolerability at 0.3 to 3 mg/kg, ip measured after 7 days; type: organism-based; conditions: in vivo, 168 h, dose 0.3-3 mg/kg, time 7 day
Mus musculus [16] = experiment: Anti-alzheimer activity against amyloid beta (25 to 35) induced working memory deficit mouse assessed as increase in spontaneous alternation performance by measuring total number of arm entries at 0.3 mg/kg, ip administered for 7 days and measured on day 8 in presence of melatonin and ferulic acid by Y-maze test; type: functional, organism-based; conditions: time 8.0 day
[17] = Metal chelating activity assessed as compound-Cu2+ complex formation at 10 to 200 uM incubated for 2 mins followed by pyrocatechol violet addition and further incubated for 10 mins by microplate reader based assay; conditions: dose 10-200 µM, time 12.0 min
[18] = Metal chelating activity compound-Zn2+ complex formation at 10 to 200 uM preincubated for 2 mins followed by di-thizone addition by microplate reader based assay; conditions: dose 10-200 µM
[19] = Metal chelating activity assessed as Fe2+ -ferrozoine complex formation at 10 to 200 uM preincubated for 2 mins followed by ferrozine addition and further incubated for 10 mins by microplate reader based assay; conditions: dose 10-200 µM, time 12.0 min
Mus musculus [20] = experiment: Neuroprotection against mouse model of Alzheimer's disease at 1 mg/kg; type: functional, organism-based
Mus musculus [21] = experiment: Anti-alzheimer activity against amyloid beta (25 to 35) induced working memory deficit mouse assessed as step-through latency time to enter dark compartment at 1 mg/kg, ip administered for 7 days and measured on day 9 days in presence of melatonin and ferulic acid by passive avoidance test; type: functional, organism-based; conditions: time 7.0 day

T1 sequence (O15379 whole entry): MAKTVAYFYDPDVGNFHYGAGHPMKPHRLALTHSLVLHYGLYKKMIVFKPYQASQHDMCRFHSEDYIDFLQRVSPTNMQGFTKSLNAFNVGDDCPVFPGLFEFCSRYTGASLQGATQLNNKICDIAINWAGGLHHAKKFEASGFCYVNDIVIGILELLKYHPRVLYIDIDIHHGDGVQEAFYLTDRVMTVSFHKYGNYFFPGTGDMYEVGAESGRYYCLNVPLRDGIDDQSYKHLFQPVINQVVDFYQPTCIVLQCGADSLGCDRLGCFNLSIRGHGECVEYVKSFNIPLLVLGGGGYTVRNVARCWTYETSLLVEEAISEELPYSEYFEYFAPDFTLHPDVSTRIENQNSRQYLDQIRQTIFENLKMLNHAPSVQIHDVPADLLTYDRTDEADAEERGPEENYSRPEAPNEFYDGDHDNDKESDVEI

Row | IC50 (Histone deacetylase 3 [1]) | Ratio IC50 (Homo sapiens) | EC50 [2] | IC50 [5] | Compound | ORAC antioxidant capacity (Trolox equivalents) [4] | further results
1 | 0.811 µM | 2 | 8.9 µM | 0.353 µM | COc1ccc2[nH]cc(CCN(CCCCCC(=O)NO)C(=O)/C=C/c3ccc(O)c(OC)c3)c2c1 | 2.8 | –
2 | – | – | 13.7 µM | – | COc1cc(/C=C/C(=O)O)ccc1O [FERULATE] | 3.1 | –
3 | 0.108 µM | 2 | 8.3 µM | 0.0532 µM | COc1ccc2[nH]cc(CCNC(=O)CN(Cc3ccc(/C=C/C(=O)NO)cc3)C(=O)/C=C/c3ccc(O)c(OC)c3)c2c1 | 1.2 | –
4 | – | – | 15.2 µM | – | COc1ccc2[nH]cc(CCNC(=O)CN(Cc3ccc(C(=O)NO)cc3)C(=O)/C=C/c3ccc(O)c(OC)c3)c2c1 | 1.6 | inhibition [9]: 19%
5 | – | – | > 6000 µM | – | COc1ccc2[nH]cc(CCNC(C)=O)c2c1 [MELATONIN] | 2 | Activity (Mus musculus [10]): inactive; Activity (Mus musculus [11]): inactive
6 | – | – | 255 µM | – | O=C(CCCCCCNC(=O)c1cnc(N(c2ccccc2)c2ccccc2)nc1)NO [RICOLINOSTAT] | 0.5 | Activity (Mus musculus [12]): Active; Activity (Mus musculus [13]): Active; Activity (Mus musculus [14]): Active; Activity [15]: Non-Toxic; Activity (Mus musculus [16]): inactive; Activity ([3]; ht-22, 48 h, 10 µM): Toxic; Activity [17]: Active; Activity [18]: Active; Activity [19]: Active; Activity (Mus musculus [20]): Active; Activity (Mus musculus [21]): inactive
7 | 0.121 µM | 2 | 19.1 µM | 0.057 µM | COc1ccc2[nH]cc(CCNC(=O)CN(CCCCCC(=O)NO)C(=O)/C=C/c3ccc(O)c(OC)c3)c2c1 | 3.2 | –

More lines, now with the values behind:

Row | Compound | IC50 (Histone deacetylase 3 [1]) | Ratio IC50 (Homo sapiens) | EC50 [2] | IC50 [5] | ORAC antioxidant capacity (Trolox equivalents) [4] | further results
8 | COc1ccc2[nH]cc(CCNC(=O)c3ccc(/C=C/C(=O)NO)cc3)c2c1 | 0.0036 µM | < 1 | 25.2 µM | 0.0191 µM | 2 | viability at 48 h, 10 µM [3]: 60%
9 | COc1ccc2c(c1)c(CCNC(C)=O)cn2CCCCCC(=O)NO | 0.494 µM | 9 | 262 µM | 0.0523 µM | 1.6 | –
10 | COc1ccc2[nH]cc(CCN(Cc3ccc(/C=C/C(=O)NO)cc3)C(=O)/C=C/c3ccc(O)c(OC)c3)c2c1 | 0.163 µM | 6 | 8.5 µM | 0.0256 µM | 1 | Activity (HT-22 [6]): Active; Activity (HT-22 [7]): Active
11 | COc1ccc2[nH]cc(CCNCc3ccc(/C=C/C(=O)NO)cc3)c2c1 | 0.0051 µM | < 1 | 17.1 µM | 0.0214 µM | 2.4 | viability at 48 h, 10 µM [3]: 50%
12 | COc1ccc2[nH]cc(CCNC(=O)CCCCC(=O)NO)c2c1 | – | – | 292 µM | – | 3 | inhibition (Histone deacetylase 3 [8]): 25%
13 | COc1ccc2[nH]cc(CCNC(=O)/C=C/c3ccc(C(=O)NO)cc3)c2c1 | 0.0197 µM | < 1 | 65 µM | 0.0337 µM | 2 | –
14 | COc1ccc2[nH]cc(CCNCc3ccc(C(=O)NO)cc3)c2c1 | – | – | 66.7 µM | – | 3 | inhibition (Histone deacetylase 3 [8]): 26%; inhibition [9]: 43%
15 | COc1ccc2c(c1)c(CCNC(C)=O)cn2Cc1ccc(/C=C/C(=O)NO)cc1 | 0.182 µM | 3 | 31.4 µM | 0.0688 µM | 1.4 | –
16 | COc1ccc2[nH]cc(CCNC(=O)c3ccc(C(=O)NO)cc3)c2c1 | – | – | 62 µM | – | 2.4 | inhibition (Histone deacetylase 3 [8]): 87%; inhibition [9]: 88%
